Reference: patent US6469033B1, “Use of 1-hydroxy-2-pyridones for the treatment of skin diseases” (Aventis Pharma Deutschland GmbH, priority 1996, dated 2002)
Where two headings read alike, the source gives them in different places.

Key:
[1] = test system: enterococci; conditions: isolates from various centers; cited from earlier work
[2] = test system: S. aureus, ofloxacin-resistant, OFX^r; assay: Agar dilution MIC, aerobic bacteria (Mueller-Hinton agar); assay type: cell-based, Staphylococcus aureus; conditions: 16 strains, number in brackets = strains with that MIC, 24 hours at 37° C.
Method: (§1) Determination of the antibacterial activity of 1-hydroxy-4-methyl-6-cyclohexyl-2(1H)pyridone to skin-pathogenic gram-positive and gram-negative aerobic bacteria.
(§2) The minimal inhibitory concentration (MIC) was determined in an agar dilution test in Mueller-Hinton agar. The active compound was first dissolved in dimethyl sulfoxide at 10% strength and then diluted to twice the amount in each case in equal stages with agar so that in the end effect concentrations between 128 μg/ml and 1 μg/ml were obtained. Overnight cultures of the bacterial strains to be tested were diluted with liquid medium and employed as inoculum. The bacterial suspensions (1×10^5 cfu/ml) were applied to the surface of the active compound-containing agar plates. With the exception of the methicillin-resistant strains of Staphylococcus aureus (MRSA) and Staphylococcus epidermidis (MRSE), the MIC values were read off after 24 hours at 37° C.(MRSA and MRSE: 48 hours at 30° C.).
(§3) The lowest concentration at which growth was no longer to be observed was designated as the MIC.
(§4) Using known methods, the antibiotic-resistant bacteria investigated can be isolated from patients or from hospitals in which antibiotic resistance has been found. The other bacterial species mentioned can be isolated easily by a person skilled in the art on account of their species and generic name or ordered from a strain collection.

[3] = test system: Enterobacter aerogenes; assay: as above; assay type: cell-based; conditions: Klebsiella aerogenes; 1 strain; 24 hours at 37° C.
Method: as §1, §2, §3, §4

[4] = test system: Enterobacter cloacae; assay: as above; assay type: cell-based; conditions: 1 strain, 24 hours at 37° C.
Method: as §1, §2, §3, §4

[5] = test system: Escherichia coli; assay: as above; assay type: cell-based; conditions: 3 strains, 24 hours at 37° C.
Method: as §1, §2, §3, §4

[6] = test system: Klebsiella pneumoniae; assay: as above; assay type: cell-based; conditions: 2 strains, number in brackets = strains with that MIC, 24 hours at 37° C.
Method: as §1, §2, §3, §4

[7] = test system: Proteus vulgaris; assay: as above; assay type: cell-based; conditions: 3 strains, number in brackets = strains with that MIC, 24 hours at 37° C.
Method: as §1, §2, §3, §4

[8] = test system: Pseudomonas aeruginosa; assay: as above; assay type: cell-based; conditions: 5 strains, 24 hours at 37° C.
Method: as §1, §2, §3, §4

[9] = test system: S. aureus, methicillin-resistant MRSA; assay: as above; assay type: cell-based; conditions: Staphylococcus aureus, 19 strains, read after 48 hours at 30° C.
Method: as §1, §2, §3, §4

[10] = test system: S. epidermidis, methicillin-resistant, MRSE; assay: as above; assay type: cell-based; conditions: Staphylococcus epidermidis, 2 strains, 48 hours at 30° C.
Method: as §1, §2, §3, §4

[11] = test system: S. epidermidis, ofloxacin-resistant, OFX^r; assay: as above; assay type: cell-based; conditions: Staphylococcus epidermidis; 4 strains; 24 hours at 37° C.
Method: as §1, §2, §3, §4

[12] = test system: Staphylococcus aureus; assay: as above; assay type: cell-based; conditions: 20 strains, read after 24 hours at 37° C.
Method: as §1, §2, §3, §4

[13] = test system: Staphylococcus epidermidis; assay: as above; assay type: cell-based; conditions: 20 strains, 24 hours at 37° C.
Method: as §1, §2, §3, §4

[14] = test system: Strept. agalactiae; assay: as above; assay type: cell-based; conditions: Streptococcus agalactiae; 9 strains; 24 hours at 37° C.
Method: as §1, §2, §3, §4

[15] = test system: Strept. durans; assay: as above; assay type: cell-based; conditions: Enterococcus durans, 24 h, 10 strains; number in brackets = strains with that MIC; 24 hours at 37° C.
Method: as §1, §2, §3, §4

[16] = test system: Strept. equisimilis; assay: as above; assay type: cell-based; conditions: Streptococcus dysgalactiae; 1 strain; 24 hours at 37° C.
Method: as §1, §2, §3, §4

[17] = test system: Strept. faecalis; assay: as above; assay type: cell-based; conditions: 3 strains, number in brackets = strains with that MIC, 24 hours at 37° C.
Method: as §1, §2, §3, §4

[18] = test system: Strept. faecium, vancomycin-resistant, VAN^r; assay: as above; assay type: cell-based; conditions: Enterococcus faecium; 1 strain; 24 hours at 37° C.
Method: as §1, §2, §3, §4

[19] = test system: Strept. faecium; assay: as above; assay type: cell-based; conditions: Enterococcus faecium; 1 strain; 24 hours at 37° C.
Method: as §1, §2, §3, §4

[20] = test system: Streptococcus pyogenes; assay: as above; assay type: cell-based; conditions: 20 strains, 24 hours at 37° C.
Method: as §1, §2, §3, §4

[21] = test system: Propionibacterium acnes; assay: Agar dilution MIC, anaerobic bacteria (Wilkins-Chalgren agar); assay type: cell-based
Method: as §3
In vitro activity of 1-hydroxy-4-methyl-6-cyclohexyl-2(1H)pyridone against anaerobic bacteria (the testing was carried out in an agar dilution test using Wilkins-Chalgren agar (Oxoid).

[22] = test system: Propionibacteria; conditions: acne patients pretreated with antibiotics; cited from earlier work
[23] = test system: Staphylococcus epidermidis; conditions: acne patients pretreated with antibiotics; cited from earlier work

gentamycin
up to 50%: resistances, share of isolates [1]

Cc1cc(C2CCCCC2)n(O)c(=O)c1 [1-hydroxy-4-methyl-6-cyclohexyl-2(1H)pyridone]
64 µg/mL: MIC ([2]; Staphylococcus aureus, 24 h, read-out: MIC) | MIC [5] | MIC ([6]; Klebsiella pneumoniae, 24 h, read-out: MIC) | MIC [7] | MIC [9] | MIC [10] | MIC [11] | MIC [12] | MIC [15] | MIC ([17]; Enterococcus faecalis, 24 h, read-out: MIC) | MIC [20]
32 µg/mL: MIC ([7]; Proteus vulgaris, 24 h, read-out: MIC) | MIC [18] | MIC ([21]; Cutibacterium acnes, DSM20458, Strain DSM 20458, read-out: MIC) | MIC ([21]; Cutibacterium acnes, Strain 6919, read-out: MIC)
32.0 µg/mL: MIC ([21]; Strain 6922) | MIC ([21]; Strain 15549)
128 µg/mL: MIC [2] | MIC [3] | MIC [4] | MIC [6] | MIC [8] | MIC [13] | MIC [14] | MIC [16] | MIC [17] | MIC [19]

CC[C@H]1OC(=O)[C@H](C)[C@@H](O[C@H]2C[C@@](C)(OC)[C@@H](O)[C@H](C)O2)[C@H](C)[C@@H](O[C@@H]2O[C@H](C)C[C@H](N(C)C)[C@H]2O)[C@](C)(O)C[C@@H](C)C(=O)[C@H](C)[C@@H](O)[C@]1(C)O [erythromycin]
90%: resistances found, share of the cases [23]
36%: resistances found, share of the cases [22]
